This is an account of results in ChEMBL document CHEMBL5096184, “Structure activity relationship in β-carboline derived anti-malarial agents” (Eur J Med Chem, 2021).

Data set [1] in a line: Cytotoxicity against human MRC5 cells. The class given is toxicity, cell-based.
In data set [2] the test system is Plasmodium falciparum. The data set can be described thus: Antimalarial activity against Plasmodium falciparum W2 (MRA-157) incubated for 72 hrs. The class given is functional, organism-based.
The subject of data set [3] is Plasmodium falciparum. As to the kind of experiment: Antimalarial activity against Plasmodium falciparum K1. The class given is functional, organism-based.
The subject of data set [4] is Plasmodium falciparum. As to the kind of experiment: Antiplasmodial activity against chloroquine sensitive Plasmodium falciparum FCA 20/Ghana. It counts as functional, organism-based.
Data set [5] concerns Plasmodium falciparum. As to the kind of experiment: Antiplasmodial activity against chloroquine sensitive Plasmodium falciparum FCB1-R/Colombia. The class given is functional, organism-based.
The subject of data set [6] is Plasmodium falciparum. The data set can be described thus: Antiplasmodial activity against chloroquine sensitive Plasmodium falciparum W2/Indochina. The class given is functional, organism-based.
In data set [7] the test system is Plasmodium falciparum. As to the kind of experiment: Antimalarial activity against chloroquine sensitive Plasmodium falciparum 3D7. The class given is functional, organism-based.
Data set [8] concerns Plasmodium falciparum. As to the kind of experiment: Antimalarial activity against chloroquine sensitive Plasmodium falciparum K1. It counts as functional, organism-based.
The test system of data set [9] is Plasmodium falciparum. As to the kind of experiment: Antimalarial activity against chloroquine-resistant Plasmodium falciparum. The class given is functional, organism-based.
Data set [10] deals with Plasmodium falciparum. The data set can be described thus: Antimalarial activity against multi drug resistant Plasmodium falciparum W2. It counts as functional, organism-based.
In the next data set the test system is Plasmodium berghei. As to the kind of experiment: Antiplasmodial activity against Plasmodium berghei assessed as reduction in parasitemia. The class given is functional, organism-based.
The mark [11] stands for this setting: Plasmodium falciparum, FCA 20/Ghana.
The mark [12] stands for this setting: Plasmodium falciparum, W2/Indochina.

Structures are written as SMILES.

In the case of `Cn1c2c(c3ccccc31)C[C@@H]1C(=O)N([C@@H]3CCN(Cc4ccccc4)C3)CC(=O)N1[C@@H]2c1ccc2c(c1)OCO2`, in data set [1], the IC50 is greater than 64 µM. `Brc1ccc(C2NCCc3c2[nH]c2ccccc32)cc1` (centres undefined): the IC50 in the data set with Plasmodium falciparum [2] is 6.9 µM. In the case of `OC1CCCN(c2nccc3c2[nH]c2ccccc23)C1` (centres undefined), in the data set with Plasmodium falciparum [3], 3.4 µM corresponded to half-maximal inhibition (IC50). As to `C/C=C1\CN2CCc3c([nH]c4ccccc34)[C@@H]2C[C@@H]1Cc1nccc2c1[nH]c1ccccc12`, the figures for the IC50 in the data set with Plasmodium falciparum [4] (setting [11]), with Plasmodium falciparum [5] and with Plasmodium falciparum [6] (setting [12]) were 1.52 µM, less than 2 µM and 0.594 µM, respectively. As for `C=C(CC1OC(C)=Cn2c3ccccc3c3cc(C(=O)OC)cc1c32)C(=O)OC` (centres undefined), the IC50 with Plasmodium falciparum [7] was determined as 0.57 µM; in the data set on Plasmodium falciparum [8] it was 0.72 µM. `c1ccc2c(-c3nccc4c3[nH]c3ccccc34)c[nH]c2c1` showed an IC50 in the data set with Plasmodium falciparum [9] of 14.4 µM. The compound `CCN(CC)CCC(C)Nc1nccc2c1[nH]c1ccccc12` (centres undefined) had an IC50 with Plasmodium falciparum [3] of 0.42 µM. Turning to `COc1ccc2[nH]cc(-c3nccc4c3[nH]c3ccc(OC)cc34)c2c1`, half-maximal inhibition in the data set with Plasmodium falciparum [9] (IC50) required 4.7 µM. In the data set on Plasmodium falciparum [7], `C=C(C#N)C1OC(C)=Cn2c3ccccc3c3cc(C(=O)OC)cc1c32` (centres undefined) yielded an IC50 greater than 5 µM. Regarding `C=C[C@H]1CN2CCc3c([nH]c4ccc(O)cc34)[C@@H]2C[C@@H]1CC1c2[nH]c3ccccc3c2CCN1C` (some centres undefined), the values for the IC50 with Plasmodium falciparum [4] (setting [11]) and with Plasmodium falciparum [6] (setting [12]) were 0.48 µM and 0.16 µM, respectively. Compound `CC1NCCc2c1[nH]c1ccc(Cl)cc21` (centres undefined) yielded an IC50 with Plasmodium falciparum [2] of 4.2 µM.

`Cc1ccc(C2NCCc3c2[nH]c2ccccc32)cc1` (centres undefined): the IC50 in the data set with Plasmodium falciparum [10] was found to be 7.6 µM. Regarding `CCN(CC)CCC(C)Nc1nccc2c1[nH]c1ccc(Cl)cc12` (centres undefined), in the data set with Plasmodium falciparum [3], it took 0.24 µM to reach half-maximal inhibition (IC50). With `COC(=O)c1cc2c3c(c1)c1ccccc1n3C=C(C)OC2C1C=CCCC1` (centres undefined), the 50% inhibitory concentration (IC50) is 1.64 µM in the data set on Plasmodium falciparum [7] and greater than 5 µM in the data set with Plasmodium falciparum [8]. On to `CC[C@H]1CN2CCc3c([nH]c4ccccc34)[C@@H]2C[C@@H]1C[C@H]1NCCc2c1[nH]c1ccccc21`, for which the IC50 with Plasmodium falciparum [4] (setting [11]) was 0.118 µM; in the data set on Plasmodium falciparum [6] (setting [12]) it was 0.492 µM.

As for `COC(=O)c1cc2c3c(c1)c1cc(Cl)ccc1n3C=C(C)OC2C/C=C(\C)CCC=C(C)C` (centres undefined), the IC50 in the data set with Plasmodium falciparum [7] was 1.55 µM; in the data set with Plasmodium falciparum [8], greater than 5 µM. `CN(C)CCCNc1nccc2c1[nH]c1ccccc12` displayed an IC50 in the data set on Plasmodium falciparum [3] of 0.45 µM. As for `COc1ccc(OC)c(C2NCCc3c2[nH]c2ccccc32)c1` (centres undefined), the IC50 in the data set with Plasmodium falciparum [2] amounted to 29.2 µM. Compound `COC(=O)C1Cc2c([nH]c3ccccc23)C(c2c[nH]c3ccccc23)N1` (centres undefined) came in with a concentration for half-maximal inhibition (IC50) with Plasmodium falciparum [9] of 13.6 µM. The compound `COC(=O)c1cc2c3c(c1)c1ccccc1n3C=C(C)OC2` returned an IC50 with Plasmodium falciparum [7] greater than 5 µM. Take `COC(=O)[C@@H]1Cc2c([nH]c3ccccc23)[C@@H](c2ccc3c(c2)OCO3)N1`: in the data set on Plasmodium berghei, the half-maximal inhibitory concentration (IC50) was less than 5 µg/mL. For the compound `C=CCC1OC(C)=Cn2c3ccc(Cl)cc3c3cc(C(=O)OC)cc1c32` (centres undefined), the IC50 with Plasmodium falciparum [7] and with Plasmodium falciparum [8] was greater than 5 µM each time. As for `CCN(CC)CCCNc1nccc2c1[nH]c1ccccc12`, the IC50 with Plasmodium falciparum [3] turned out to be 0.64 µM. The compound `CN(C)c1ccc(C2NCCc3c2[nH]c2ccccc32)cc1` (centres undefined) had an IC50 in the data set with Plasmodium falciparum [2] of 3.9 µM. In the case of `CCN(CC)C1CCN(c2nccc3c2[nH]c2ccccc23)CC1`, the IC50 in the data set with Plasmodium falciparum [3] was 0.41 µM. For the compound `CC1NCCc2c1[nH]c1ccccc21` (centres undefined) [TETRAHYDROHARMAN], in the data set with Plasmodium falciparum [10], the IC50 worked out at 1.4 µM.

Consider `CN1CCc2c3n(c4ccccc24)C(O)C[C@H](C2=CCOC2=O)C[C@@H]31` (some centres undefined), for which the IC50 worked out at 25.9 µM in the data set on Plasmodium falciparum [4] and 17 µM in the data set on Plasmodium falciparum [4] (setting [11]). `Oc1ccc2[nH]cc(-c3nccc4c3[nH]c3ccc(O)cc34)c2c1` returned an IC50 in the data set on Plasmodium falciparum [9] of 11 µM. Turning to `CC1C2=CN3CCc4c([nH]c5ccc(O)cc45)C3CC2CC2C3C(CCN2C)c2ccccc2N13` (stereo in doubt; 34), the results for the IC50 in the data set on Plasmodium falciparum [4] (setting [11]), in the data set on Plasmodium falciparum [5] and with Plasmodium falciparum [6] were 12.6 µM, 2 µM and 4.57 µM, respectively. Compound `COc1ccc(C2NCCc3c2[nH]c2ccccc32)cc1OC` (centres undefined) registered an IC50 in the data set with Plasmodium falciparum [2] greater than 81.1 µM. Consider `Cc1cccc(C2NCCc3c2[nH]c2ccccc32)c1` (centres undefined), for which, in the data set on Plasmodium falciparum [10], the IC50 was 38.1 µM. In turn, `c1ccc2c(C3NCCc4c3[nH]c3ccccc43)c[nH]c2c1` (centres undefined) gave an IC50 in the data set on Plasmodium falciparum [9] of 5.1 µM. `Clc1ccc2[nH]c3c(N4CCC(N5CCCCC5)CC4)nccc3c2c1` registered an IC50 in the data set with Plasmodium falciparum [3] of 10.2 µM.

`C=C(C)CC1OC(C)=Cn2c3ccccc3c3cc(C(=O)OC)cc1c32` (centres undefined): the IC50 in the data set with Plasmodium falciparum [7] was greater than 5 µM. Regarding `COC(=O)[C@@H]1Cc2c([nH]c3ccccc23)[C@H](c2cccs2)N1`, the IC50 in the data set on Plasmodium berghei was less than 5 µg/mL. Turning to `COC(=O)[C@@H]1Cc2c([nH]c3ccccc23)[C@H](c2cccnc2)N1`, the IC50 in the data set on Plasmodium berghei is less than 5 µg/mL.

`Clc1ccc2[nH]c3c(N4CCC(N5CCCC5)CC4)nccc3c2c1`: the midpoint of inhibition in the data set on Plasmodium falciparum [3], the IC50, lay at 0.93 µM. Regarding `CCN(CC)C1CCN(c2nccc3c2[nH]c2ccc(Cl)cc23)CC1`, the IC50 in the data set with Plasmodium falciparum [3] turned out to be 1.6 µM. As to `c1ccc2c(c1)[nH]c1c(N3CCC(N4CCCC4)CC3)nccc12`, in the data set on Plasmodium falciparum [3], the IC50 amounted to 0.45 µM. Compound `O=[N+]([O-])c1cccc(C2NCCc3c2[nH]c2ccccc32)c1` (centres undefined) came in with an IC50 with Plasmodium falciparum [2] of 13.6 µM. Compound `COC(=O)c1cc2c([nH]c3ccccc32)c(-c2c[nH]c3ccccc23)n1` gave an IC50 in the data set with Plasmodium falciparum [9] greater than 29 µM. Turning to `COC(=O)c1cc2c3c(c1)c1ccccc1n3C=C(C)OC2CC=C(C)C` (centres undefined), the IC50 with Plasmodium falciparum [7] and in the data set with Plasmodium falciparum [8] was greater than 5 µM throughout.

What is called IC50 is the concentration that inhibits the measured activity by half.
